The results in this text go back to ChEMBL document CHEMBL5143757, “Combination of Cyclin-Dependent Kinase 4 Inhibitors and Androgen Receptor Inhibitors as Cancer Therapy” (2022).

Common to all, as to assay type: functional
What all share (settings): 96 h, read-out: GI

A short description of test [1]: Growth inhibition of human LNCaP/AR cells assessed as decrease in tumor spheroid growth at 300 nM with media replenishment twice per week along with 3 to 4-day interval compound relative to control.
Test [2] in a line: Growth inhibition of human LNCaP/AR cells assessed as decrease in tumor spheroid growth at 1000 nM with media replenishment twice per week along with 3 to 4-day interval compound relative to control.
The nature of test [3]: Growth inhibition of human LNCaP/AR cells assessed as decrease in tumor spheroid growth at 300 nM with media replenishment twice per week along with 3 to 4-day interval compound in presence of enzalutamide relative to control.
A short description of test [4]: Growth inhibition of human LNCaP/AR cells assessed as decrease in tumor spheroid growth at 100 nM with media replenishment twice per week along with 3 to 4-day interval compound relative to control.
Test [5] is described as follows: Growth inhibition of human LNCaP/AR cells assessed as decrease in tumor spheroid growth at 1000 nM with media replenishment twice per week along with 3 to 4-day interval compound in presence of palbociclib relative to control.
Test [6] is described as follows: Growth inhibition of human LNCaP/AR cells assessed as decrease in tumor spheroid growth at 1000 nM with media replenishment twice per week along with 3 to 4-day interval compound in presence of Compound A relative to control.
A short description of test [7]: Growth inhibition of human LNCaP/AR cells assessed as decrease in tumor spheroid growth at 30 nM with media replenishment twice per week along with 3 to 4-day interval compound in presence of enzalutamide relative to control.
A short description of test [8]: Growth inhibition of human LNCaP/AR cells assessed as decrease in tumor spheroid growth at 30 nM with media replenishment twice per week along with 3 to 4-day interval compound relative to control.

In the case of `CC(C)n1c(C(C)(C)O)nc2c(F)cc(-c3nc(N[C@@H]4CCOC[C@H]4O)ncc3Cl)cc21` [ATIRMOCICLIB], the values for the inhibition of growth at 0.3 µM in test [1] and in test [3] were 38% and 70%, respectively. Moreover, the inhibition of growth at 1 µM in test [2] worked out at 53%. Besides, in test [4], the inhibition of growth at 0.1 µM was determined as 27%.

Regarding `CNC(=O)c1ccc(N2C(=S)N(c3ccc(C#N)c(C(F)(F)F)c3)C(=O)C2(C)C)cc1F` [ENZALUTAMIDE], the inhibition of growth at 1 µM came to 46% in test [2], 47% in test [5] and 70% in test [6].

Turning to `CC(=O)c1c(C)c2cnc(Nc3ccc(N4CCNCC4)cn3)nc2n(C2CCCC2)c1=O` [PALBOCICLIB], the inhibition of growth at 0.03 µM in test [7] amounted to 47%; in test [8], 5%. Also, in test [4], the inhibition of growth at 0.1 µM is 24%.
